Assay results published in PMC13538172, “Zonisamide nanodiamonds for brain targeting: A comprehensive study utilising in silico, in vitro, in vivo, and molecular investigation for successful nose-to-brain delivery for epilepsy management” (Drug Delivery and Translational Research, 2025).
Values joined by “and” are separate entries in the source; they are usually repeats but may differ in a detail not shown here. Equal entries are not always repeated.

How the values were obtained:
[1] = In vitro drug release, Franz diffusion cell with dialysis bag; format: physicochemical; conditions: PBS pH 7.4, 37 ± 0.5 °C
Procedure: The in vitro release study utilized a Franz diffusion cell with a diffusion area of 1.77 cm^2 [44]. The receptor compartment contained 7.5 ml phosphate buffer (PBS) pH 7.4, simulating the pH at the release site in the brain [45, 46], and the system was equilibrated at 37 ± 0.5 °C by a circulating water jacket. […] At certain time intervals (0, 0.25, 0.5, 0.75, 1, 2, 4, 8, 12, 24, 36, 48, and 72 h), 0.5 ml samples were aliquoted from the receptor compartment and replaced with equal volumes of fresh medium to maintain a constant volume. Samples were filtered using a 0.22 μm filter and analyzed spectrophotometrically as previously described. In order to understand the barrier presented by the dialysis membrane, the in vitro release study of unformulated ZNS (free drug) solution in distilled water of the same concentration (1mg/ml w/v) was carried out similarly in a separate setup, all release experiments were done in triplicates, and the release data were fitted to various release kinetic models: zero, first, Higuchi diffusion, and Hixson–Crowell and Korsmeyer–Peppas models.

[2] = Brain uptake, biodistribution and pharmacokinetics of 99mTc-radiolabelled ZNS in mice; format: in vivo, male Swiss albino mice; conditions: for Cmax (%ID/g), blood / Cmax (%ID/g), brain: n = 6
Procedure: Then, 100 μL of freshly eluted ^99mTc-pertechnetate; 99mTcO4- (200 MBq) was added to the above mixture, and the reaction mixture was vigorously shaken for 15 minutes. Radiochromatographic analysis was developed using the ascending paper chromatography (PC) technique to monitor the radiochemical purity of the ^99mTc-labelled compound using two distinct mobile phases; acetone was used to detect free pertechnetate, which migrated to Rf = 1, while the other component remained at Rf = 0 and a second mobile phase, comprising NH4OH, C2H5OH, and H2O (1:2:5), was used to determine the reduced hydrolyzed (R-H) 99mTc-colloid, which remained at Rf = 0, whereas ^99mTc-labelled compound and free pertechnetate migrated to Rf = 1 [7, 47]. Two drops of the reaction product and free 99mTcO4 were placed on two strips of Whatman PC on the origin line, 2 cm far from the base, to be developed by developing solvents. The experiments were conducted in triplicate to ensure the reproducibility and reliability of the results. As the developing process was terminated, the strip was dried, trimmed into 1 cm size pieces, and counted using the sodium iodide (NaI) γ-ray scintillation counter (A good-type NaI scintillation γ-Counter model scalar rate meter SR7 (Nuclear Enterprises Ltd., USA). The radiochemical yield percent of ^99mTc–ZNS was calculated using Eq. (3)3 %Radiochemicalyield=100-%Free99mTc-%colloid99mTc
The experiment protocol was approved by the University of October for Modern Sciences and Arts (MSA) ethical committee (Pt2/Ec2/2022PD), where the principles of the Declaration of Helsinki were followed. The mice were maintained in cabins of a size that suits groups of five at room temperature with a 12 h light/dark cycle and accessibility to food and water ad libitum. The mice were divided into four groups. Mice in group 1 served as a control and received no treatments. Mice in group 2 were given ZNS orally using an oral gavage (100 μL). Mice in group 3 were injected intranasally with ^99mTc–ND-ZNS complex in each nostril (100 μL) with the help of a micropipette attached with a low-density polyethene tube having 0.1 mm internal diameter at the delivery site. Mice in group 4 were injected intranasally free ^99mTc–-ZNS similarly. The mice were held from the back in a slanted position during nasal administration of the formulations. Next, mice were anesthetized by chloroform at 5, 15, 30, 60, 120 min post-injection (n=6 mice/time point). Samples of fresh blood and different organs were collected, washed twice using saline solution, made free from adhering tissue/fluid, and weighed. The radioactivity in each tissue/organ was measured using a shielded well-type gamma scintillation counter. The radiopharmaceutical uptake per gram in each tissue/organ was calculated as a fraction of the administered dose. Percent injected dose per gram organ and body fluid (mean %ID per gram organ and body fluid ± SD) in a population of six mice were calculated, and the significance level was set at […].
Drug concentrations in plasma and brain were investigated based on the measured radioactivity as previously discussed. Blood samples were collected at 5, 15, 30, 60, and 120 min post-injection (n=6 mice/time interval). Plasma and brain pharmacokinetic parameters were calculated by non-compartmental analysis using the Microsoft Excel Pharmacokinetics add-on. The rate of drug absorption was estimated through maximum plasma/brain concentration (Cmax), time for maximum plasma/brain concentration (Tmax), the extent of drug absorption via the area under the curve from zero to time (AUC0-t), and the area under the curve from zero to infinity (AUC 0-∞). The data in the form of mean values (± SD) of three determinations were statistically analyzed by applying one-way ANOVA using Minitab 17 software. Data was expressed as mean±S.D and analyzed by ANOVA followed by Tukey's test for multiple comparisons. Differences were considered significant when p was less than 0.05. […]

ZNS released in 2 hours [1]: 96.9±2.1%
tissue distribution of ZNS (brain, liver, kidney, stomach, lungs) ([2]; 5-120 min, Fig. 6, result in words): minimal distribution in the brain
Brain/Blood Ratio (AUC Brain/AUC Blood) ([2]; intranasal): 0.24
LogBB at 15 min ([2]; intranasal): −0.55±0.06
LogBB at 15 min ([2]; intranasal, listed as free ZNS): −0.556
LogBB at 120 min ([2]; intranasal): −0.477
AUC(0-120min), blood ([2]; intranasal): 125.25 ± 21.3 %ID/g.min
Tmax (min), blood ([2]; intranasal): 15 min
Cmax (%ID/g), blood ([2]; intranasal): 1.8 ± 0.7 %ID/g
AUC(0-120min), brain ([2]; intranasal): 31 ± 9.6 %ID/g.min
Tmax (min), brain ([2]; intranasal): 15 min
Cmax (%ID/g), brain ([2]; intranasal): 0.5 ± 0.2 %ID/g
LogBB at 15 min ([2]; oral): −0.865
LogBB at 120 min ([2]; oral): −1.301
AUC(0-120min), blood ([2]; oral): 77.6 ± 15.3 %ID/g.min
Tmax (min), blood ([2]; oral): 30 min
Cmax (%ID/g), blood ([2]; oral): 1.4 ± 0.07 %ID/g
AUC(0-120min), brain ([2]; oral): 7.1 ± 3.1 %ID/g.min
Tmax (min), brain ([2]; oral): 15 min
Cmax (%ID/g), brain ([2]; oral): 0.2 ± 0.02 %ID/g
Brain/Blood Ratio (AUC Brain/AUC Blood) ([2]; oral, listed as free ZNS): 0.09 and 0.091
Structure (SMILES): NS(=O)(=O)Cc1noc2ccccc12 [ZNS, Zonisamide]
